Among the test systems are OVCAR-3 ovarian; CAKI-1 renal; NCI-H460 lung; OVCAR-8 ovarian; HS 578T breast; SF-295 CNS; KM12 colon; M14 melanoma; SF-268 CNS; PC-3 prostate.
Holding throughout (experiment): NCI-60 cell line screen, 48 h

Values joined by “and” are separate entries in the source; they are usually repeats but may differ in a detail not shown here. Identical values can stand only once.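 Five concentrations, 48 hours, 96-well plates. Abbreviation: GI50, concentration required for 50% inhibition of growth. Definition used: TGI = concentration required for complete inhibition of growth.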 Where only a bound is given, the exact number is not on record here.

As to `CCCC(=O)Nc1cn(COC)c(C(=O)N2C[C@@H]3C[C@]34C2=CC(=O)c2[nH]cc(C)c24)n1`, the GI50 with OVCAR-3 ovarian was 2.98 µM; in the assay on CAKI-1 renal, 4.65 µM; in the assay on NCI-H460 lung, 2.44 µM; in the assay on HS 578T breast, 12.2 µM; in the assay on SF-295 CNS, 3.68 µM; in the assay on KM12 colon it was 10.5 µM. Further, the GI50 is 4.12 µM with M14 melanoma, 2.65 µM with SF-268 CNS and 5.65 µM with PC-3 prostate. In addition, the TGI is 27.2 µM and 7.03 µM with OVCAR-3 ovarian; 12.1 µM and 16.2 µM in the assay on CAKI-1 renal; 13.9 µM and 5.08 µM in the assay with NCI-H460 lung; 12.8 µM and 14 µM in the assay on OVCAR-8 ovarian; 44.6 µM and 41.2 µM in the assay on HS 578T breast; 50 µM and 15.8 µM with SF-295 CNS. Moreover, the TGI with KM12 colon is > 5 µM and 24.5 µM; with M14 melanoma it was 50 µM and 16.2 µM; in the assay with SF-268 CNS, 30.5 µM and 8.66 µM; in the assay with PC-3 prostate, 24.1 µM and 19 µM.

Regarding `COc1ccc(-c2nnc3n(C)c(=O)c4ccccc4n23)cc1N`, the GI50 is 0.0474 µM in the assay with OVCAR-3 ovarian; 1.95 µM in the assay on CAKI-1 renal; 0.0508 µM in the assay with NCI-H460 lung; 4.94 µM in the assay with OVCAR-8 ovarian; 4.43 µM with HS 578T breast; 0.0499 µM in the assay on SF-295 CNS. Further, the GI50 with KM12 colon is 0.0499 µM; with M14 melanoma, 0.0475 µM; with SF-268 CNS it was 7.17 µM; with PC-3 prostate, 2.65 µM. In addition, the TGI with OVCAR-3 ovarian, in the assay with CAKI-1 renal, in the assay on NCI-H460 lung, in the assay with OVCAR-8 ovarian, in the assay with HS 578T breast and in the assay with SF-295 CNS was over 100 µM throughout. The TGI in the assay on KM12 colon, in the assay on M14 melanoma, in the assay on SF-268 CNS and in the assay with PC-3 prostate was over 100 µM throughout.

In the case of `COc1cc(N=Nc2ccc(O)c3ncccc23)c2ncccc2c1`, the GI50 was 4.58 µM in the assay with OVCAR-3 ovarian; 1.83 µM in the assay on CAKI-1 renal; 3.13 µM in the assay with NCI-H460 lung; 3.73 µM with OVCAR-8 ovarian; 4.67 µM with HS 578T breast; 18.5 µM in the assay on SF-295 CNS. For the same molecule, the GI50 with KM12 colon is 4.21 µM; in the assay with M14 melanoma, 2.66 µM; in the assay with SF-268 CNS it was 2.81 µM; with PC-3 prostate it was 2.84 µM. Also, the TGI in the assay with OVCAR-3 ovarian, in the assay with CAKI-1 renal, in the assay on NCI-H460 lung, in the assay with OVCAR-8 ovarian, in the assay with HS 578T breast and with SF-295 CNS was over 100 µM each time. Further, the TGI in the assay with KM12 colon, with M14 melanoma, in the assay on SF-268 CNS and in the assay with PC-3 prostate was over 100 µM in each case.

Take `CCN1CCN(c2cc(C)c3cc(NC(=O)c4ccc(OC)c(OC)c4)ccc3n2)CC1`: the GI50 in the assay with OVCAR-3 ovarian is 0.528 µM; in the assay with CAKI-1 renal, over 44.6 µM; in the assay with NCI-H460 lung, 10.5 µM; with OVCAR-8 ovarian it was 50.7 µM; with HS 578T breast, 8.55 µM; in the assay with SF-295 CNS, 11.8 µM. Further, the GI50 in the assay on KM12 colon is 3.48 µM; in the assay on M14 melanoma, 8.88 µM; in the assay with SF-268 CNS, 9.19 µM; with PC-3 prostate it was 7.3 µM. Moreover, the TGI with OVCAR-3 ovarian was 20.1 µM; in the assay on CAKI-1 renal, over 100 µM; in the assay on NCI-H460 lung it was 31.3 µM; with OVCAR-8 ovarian, over 100 µM; in the assay on HS 578T breast, over 74.1 µM; in the assay on SF-295 CNS, 38.5 µM. The TGI is over 86.3 µM in the assay on KM12 colon, over 100 µM with M14 melanoma, over 75.1 µM with SF-268 CNS and over 100 µM in the assay on PC-3 prostate.

Take `O=C(Nc1cccc(C(F)(F)F)c1)c1ccc(NC2=C(Cl)C(=O)N(Cc3ccc(Cl)cc3Cl)C2=O)cc1`: the GI50 with OVCAR-3 ovarian was 15.3 µM; in the assay on CAKI-1 renal, 16.8 µM; in the assay on NCI-H460 lung, 8.38 µM; with OVCAR-8 ovarian, 3.42 µM; in the assay with HS 578T breast it was 2.88 µM; in the assay with SF-295 CNS, 13 µM. Moreover, the GI50 is 14.6 µM in the assay with KM12 colon, 15.3 µM in the assay with M14 melanoma, 11 µM in the assay on SF-268 CNS and 4.64 µM in the assay with PC-3 prostate. In addition, the TGI in the assay on OVCAR-3 ovarian was 30.9 µM; with CAKI-1 renal, 34.6 µM; in the assay with NCI-H460 lung it was 31 µM; with OVCAR-8 ovarian it was 19.7 µM; in the assay with HS 578T breast, 8.26 µM; with SF-295 CNS it was 35 µM. The TGI in the assay on KM12 colon is 31.4 µM; in the assay with M14 melanoma, 32.4 µM; in the assay on SF-268 CNS, 35.5 µM; in the assay on PC-3 prostate, 15.2 µM.

For the molecule `Cc1nc(Nc2cccnc2)sc1C(=O)/C=C/c1ccc(F)cc1`, the GI50 with OVCAR-3 ovarian is 3.14 µM; in the assay on CAKI-1 renal, 3.39 µM; in the assay with NCI-H460 lung, 2.68 µM; in the assay with OVCAR-8 ovarian, 3.92 µM; in the assay on HS 578T breast it was 4.05 µM; in the assay on SF-295 CNS, 3.09 µM. Moreover, the GI50 is 2.04 µM with KM12 colon, 3.02 µM in the assay with M14 melanoma, 3.57 µM in the assay with SF-268 CNS and 4.07 µM with PC-3 prostate. For the same molecule, the TGI with OVCAR-3 ovarian is 12.8 µM; with CAKI-1 renal it was 13.6 µM; with NCI-H460 lung it was 6.9 µM; in the assay with OVCAR-8 ovarian, over 100 µM; in the assay with HS 578T breast, over 100 µM; in the assay with SF-295 CNS, 18.2 µM. Also, the TGI amounted to 4.61 µM in the assay with KM12 colon, 12.9 µM with M14 melanoma, 31.9 µM in the assay with SF-268 CNS and 20.1 µM in the assay with PC-3 prostate.

Source of the values: PubChem BioAssay (NCI).
